Test results published in US9944618B2, “Inhibiting neurotransmitter reuptake” (Mayo Foundation for Medical Education and Research, priority 2013, dated 2018).
Read-outs that look alike come from different tables or passages of the source.

Assays:
hERG = hERG (Homo sapiens (Human), UniProt Q12809); assay: Human ERG (hERG) assay, hERG currents in hERG-expressing CHO cells; type: cell-based; conditions: hERG-expressing CHO cells
Text: The voltage-dependent potassium channel encoded by the human ether-a-go-go-related gene (hERG) is believed to play a key role in repolarisation of the ventricular cardiac action potential. Changes in its activity, caused either by inherited mutations of the gene sequence or pharmacological modification, can lead to prolongation of action potential duration. This can lead to prolongation of the QT interval recorded in man on an electrocardiogram and to a potentially fatal cardiac arrhythmia known as Torsades de Pointes.
hERG currents were recorded from hERG-expressing CHO cells. The biophysical and pharmacological characterization of the hERG currents in these cells was performed.

CYP2D6 = CYP2D6 (Homo sapiens (Human), UniProt P10635); assay: Cytochrome P450 inhibition assay, recombinant CYP2D6 (MAMC substrate); type: in vitro ADME; conditions: recombinant enzyme
[1] = biological target: human norepinephrine transporter (Homo sapiens (Human), UniProt P23975); assay: Human NET (norepinephrine transporter) uptake assay; type: cell-based; conditions: read-out: hNET Ki
How it was run: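 HEK293F cells transfected with human NET were thawed, plated at about 60,000 cells/well and held at 37 °C for at least 3 h. Compounds came from 10 mM DMSO stocks, with nomifensine as control, in 1×HBSS/0.02 M HEPES. Uptake was followed with a neurotransmitter transporter dye, dosed as % of vendor reconstitution, in triplicate.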

[2] = biological target: human serotonin transporter (Homo sapiens (Human), UniProt P31645); assay: Human SERT (serotonin transporter) uptake assay; type: cell-based; conditions: read-out: hSERT Ki
How it was run: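 HEK293F cells transfected with human SERT, about 60,000 per well, settled for ≥3 h at 37° C before compound addition. Uptake was followed with a fluorescent transporter dye in HBSS with 0.02 M HEPES. Background came from 10 μM fluoxetine, nomifensine was the control, n=3.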

CYP3A4 = CYP3A4 (Homo sapiens (Human), UniProt P08684); assay: Cytochrome P450 inhibition assay, recombinant CYP3A4 (BFC substrate); type: in vitro ADME; conditions: recombinant enzyme
Protocol: Recombinant enzymes, 3A4 and 2D6, generated using the ABL yeast expression system were used. […] The assay mixture also included K2HPO4 (pH 7.4; conc. 0.1 M) and NADPH (conc. 1 mM). The incubation time was 30 minutes, and the reference inhibitor was A-naphthoflavone. For CYP2D6, the enzyme amount was 2 pmol per well, and the substrate (7-methoxy-4-(aminomethyl)-coumarin; MAMC) was used at 20 μM. The assay mixture also included K2HPO4 (pH 7.4; conc. 0.1 M) and NADPH (conc. 0.06 mM). The incubation time was 35 minutes, and the reference inhibitor was quinidine.
Briefly, 0.6 μL of serially diluted compound was added to 75 μL water. 10 μL of diluted compound in water was then added to each assay plate. 20 μL of a K2HPO4, enzyme, and substrate mixture was added. After 10 minutes of room temperature pre-incubation, 10 μL of NADPH was added, and the plates were placed at 37° C. for 30 or 35 minutes depending on the enzyme being tested. After the incubation was complete, 20 μL of 0.1% Tris/ACN was added to the plate. The plate was read on a FluorStar fluorescence plate reader.

[3] = biological target: human dopamine transporter (Homo sapiens (Human), UniProt Q01959); assay: Human DAT (dopamine transporter) uptake assay; type: cell-based; conditions: read-out: hDAT Ki
How it was run: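 Uptake inhibition was measured in HEK293F cells transfected with human DAT, plated at ~60,000 cells/well and settled ≥3 h at 37 °C. Compounds came from 10 mM DMSO stocks. Read-out was uptake of a fluorescent neurotransmitter transporter dye in HBSS with 0.02 M HEPES, with dye level given as % of vendor reconstitution; n=3.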

[4] = pKa of basic centres (Table 1); type: physicochemical
[5] = first base, e.g., an aliphatic primary, secondary, or tertiary amine, read-out: pKa (Base 1)
[6] = first base, e.g., an aliphatic primary, secondary, or tertiary amine
[7] = second base in the same molecule (if present), read-out: pKa (Base 2)

Sequence of human dopamine transporter (Q01959 whole entry): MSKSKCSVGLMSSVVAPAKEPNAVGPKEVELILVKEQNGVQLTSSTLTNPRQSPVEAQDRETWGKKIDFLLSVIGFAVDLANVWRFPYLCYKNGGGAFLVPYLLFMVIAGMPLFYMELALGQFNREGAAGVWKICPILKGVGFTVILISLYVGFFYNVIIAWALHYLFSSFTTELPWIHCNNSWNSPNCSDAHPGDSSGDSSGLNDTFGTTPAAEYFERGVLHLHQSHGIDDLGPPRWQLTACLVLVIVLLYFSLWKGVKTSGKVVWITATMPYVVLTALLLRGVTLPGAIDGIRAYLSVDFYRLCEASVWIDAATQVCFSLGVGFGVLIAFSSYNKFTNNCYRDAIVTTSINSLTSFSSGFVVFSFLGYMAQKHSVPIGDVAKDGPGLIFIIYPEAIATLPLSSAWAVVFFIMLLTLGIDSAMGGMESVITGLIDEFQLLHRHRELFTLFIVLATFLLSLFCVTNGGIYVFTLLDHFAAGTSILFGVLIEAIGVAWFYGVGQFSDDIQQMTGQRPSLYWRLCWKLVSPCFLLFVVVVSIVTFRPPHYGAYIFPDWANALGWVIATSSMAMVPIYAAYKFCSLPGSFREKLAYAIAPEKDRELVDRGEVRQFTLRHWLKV
Sequence of human serotonin transporter (P31645 whole entry): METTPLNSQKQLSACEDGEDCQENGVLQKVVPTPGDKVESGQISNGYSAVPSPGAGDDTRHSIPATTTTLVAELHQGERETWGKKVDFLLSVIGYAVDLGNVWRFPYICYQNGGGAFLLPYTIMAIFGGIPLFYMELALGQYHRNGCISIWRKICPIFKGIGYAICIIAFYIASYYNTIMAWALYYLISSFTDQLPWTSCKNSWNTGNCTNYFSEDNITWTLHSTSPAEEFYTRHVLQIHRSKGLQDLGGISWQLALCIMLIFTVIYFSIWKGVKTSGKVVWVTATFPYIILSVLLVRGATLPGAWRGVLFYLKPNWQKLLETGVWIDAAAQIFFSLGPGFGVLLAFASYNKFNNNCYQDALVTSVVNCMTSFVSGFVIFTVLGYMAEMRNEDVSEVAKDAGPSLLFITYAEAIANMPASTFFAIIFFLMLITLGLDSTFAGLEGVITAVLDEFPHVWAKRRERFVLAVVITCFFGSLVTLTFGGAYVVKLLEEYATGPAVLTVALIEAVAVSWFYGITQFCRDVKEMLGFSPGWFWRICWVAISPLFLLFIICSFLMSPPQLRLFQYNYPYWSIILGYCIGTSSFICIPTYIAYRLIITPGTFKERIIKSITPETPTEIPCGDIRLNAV
Sequence of human norepinephrine transporter (P23975 whole entry): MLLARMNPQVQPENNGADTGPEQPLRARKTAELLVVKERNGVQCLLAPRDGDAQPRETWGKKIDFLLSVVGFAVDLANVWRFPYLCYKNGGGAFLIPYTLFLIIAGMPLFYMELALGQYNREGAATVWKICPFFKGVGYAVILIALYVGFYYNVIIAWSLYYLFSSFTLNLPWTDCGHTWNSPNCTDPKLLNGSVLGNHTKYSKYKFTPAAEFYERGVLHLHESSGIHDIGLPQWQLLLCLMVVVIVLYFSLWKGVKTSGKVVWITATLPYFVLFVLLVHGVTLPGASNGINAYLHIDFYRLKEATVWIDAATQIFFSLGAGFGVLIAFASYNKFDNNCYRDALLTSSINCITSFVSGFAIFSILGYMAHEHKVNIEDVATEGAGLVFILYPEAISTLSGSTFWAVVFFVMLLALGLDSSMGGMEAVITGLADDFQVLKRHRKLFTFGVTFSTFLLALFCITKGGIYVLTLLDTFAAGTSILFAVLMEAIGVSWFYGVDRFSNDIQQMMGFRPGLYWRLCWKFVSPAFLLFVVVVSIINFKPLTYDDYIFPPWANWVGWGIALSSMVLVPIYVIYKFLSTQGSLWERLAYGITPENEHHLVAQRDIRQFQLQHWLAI
Sequence of CYP2D6 (P10635 whole entry): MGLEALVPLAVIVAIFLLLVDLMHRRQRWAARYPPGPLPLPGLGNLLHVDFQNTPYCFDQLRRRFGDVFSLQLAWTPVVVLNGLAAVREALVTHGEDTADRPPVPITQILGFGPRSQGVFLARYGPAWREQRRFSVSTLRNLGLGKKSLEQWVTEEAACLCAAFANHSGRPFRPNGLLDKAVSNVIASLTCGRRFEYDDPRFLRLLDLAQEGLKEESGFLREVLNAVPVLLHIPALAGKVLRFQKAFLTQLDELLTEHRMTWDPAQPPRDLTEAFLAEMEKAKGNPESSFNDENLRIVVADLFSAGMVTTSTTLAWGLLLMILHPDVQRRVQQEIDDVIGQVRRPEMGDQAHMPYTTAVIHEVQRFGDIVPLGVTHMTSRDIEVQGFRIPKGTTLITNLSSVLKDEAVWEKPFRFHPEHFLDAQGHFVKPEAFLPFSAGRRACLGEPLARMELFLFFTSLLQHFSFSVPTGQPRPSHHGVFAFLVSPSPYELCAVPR
Sequence of hERG (Q12809 whole entry): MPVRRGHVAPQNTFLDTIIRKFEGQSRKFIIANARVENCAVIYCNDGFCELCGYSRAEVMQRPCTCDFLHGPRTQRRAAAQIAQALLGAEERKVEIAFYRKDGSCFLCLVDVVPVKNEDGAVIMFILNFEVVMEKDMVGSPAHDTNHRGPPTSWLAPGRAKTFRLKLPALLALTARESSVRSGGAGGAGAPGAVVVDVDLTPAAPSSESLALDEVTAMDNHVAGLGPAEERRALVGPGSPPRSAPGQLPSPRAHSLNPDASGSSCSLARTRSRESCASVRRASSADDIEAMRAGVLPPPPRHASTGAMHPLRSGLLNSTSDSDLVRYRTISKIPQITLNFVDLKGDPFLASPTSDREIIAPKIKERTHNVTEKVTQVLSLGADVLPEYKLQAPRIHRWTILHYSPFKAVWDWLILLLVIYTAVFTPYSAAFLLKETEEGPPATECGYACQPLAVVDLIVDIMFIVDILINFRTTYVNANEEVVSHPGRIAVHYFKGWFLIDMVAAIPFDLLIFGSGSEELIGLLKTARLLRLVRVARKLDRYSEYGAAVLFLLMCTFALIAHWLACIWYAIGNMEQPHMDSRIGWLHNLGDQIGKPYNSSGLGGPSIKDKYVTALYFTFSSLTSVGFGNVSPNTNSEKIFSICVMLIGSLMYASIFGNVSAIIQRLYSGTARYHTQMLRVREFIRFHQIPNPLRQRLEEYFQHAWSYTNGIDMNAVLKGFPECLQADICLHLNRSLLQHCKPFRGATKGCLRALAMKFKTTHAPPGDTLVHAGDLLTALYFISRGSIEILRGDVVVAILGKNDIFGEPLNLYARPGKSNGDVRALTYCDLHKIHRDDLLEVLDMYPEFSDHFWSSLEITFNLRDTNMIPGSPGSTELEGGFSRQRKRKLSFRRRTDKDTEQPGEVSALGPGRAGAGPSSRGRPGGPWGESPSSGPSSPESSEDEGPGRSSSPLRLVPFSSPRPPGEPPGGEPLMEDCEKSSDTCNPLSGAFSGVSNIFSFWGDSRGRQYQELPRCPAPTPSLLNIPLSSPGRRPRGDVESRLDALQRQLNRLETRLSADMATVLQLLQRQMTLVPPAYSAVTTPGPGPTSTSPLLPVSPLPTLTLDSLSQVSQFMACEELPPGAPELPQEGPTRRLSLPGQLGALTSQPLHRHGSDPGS
Sequence of CYP3A4 (P08684 whole entry): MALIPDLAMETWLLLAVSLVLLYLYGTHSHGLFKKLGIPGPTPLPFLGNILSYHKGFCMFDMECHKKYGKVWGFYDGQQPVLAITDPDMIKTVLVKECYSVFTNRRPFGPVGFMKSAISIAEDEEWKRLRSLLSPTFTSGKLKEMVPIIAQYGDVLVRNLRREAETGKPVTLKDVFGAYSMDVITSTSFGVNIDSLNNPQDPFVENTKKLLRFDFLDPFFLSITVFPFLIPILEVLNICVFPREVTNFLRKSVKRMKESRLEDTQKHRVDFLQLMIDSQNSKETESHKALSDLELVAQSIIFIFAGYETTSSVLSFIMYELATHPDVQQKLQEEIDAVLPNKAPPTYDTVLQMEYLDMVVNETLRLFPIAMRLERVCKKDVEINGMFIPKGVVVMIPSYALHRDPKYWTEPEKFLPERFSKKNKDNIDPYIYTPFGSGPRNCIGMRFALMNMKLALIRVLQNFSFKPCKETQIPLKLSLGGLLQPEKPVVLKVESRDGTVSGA

Row | Compound | IC50 (CYP2D6) | Ki [1] | Ki [2] | IC50 (CYP3A4) | Ki [3] | pKa [4, 5] | pKa (Base 1) [4, 6] | pKa [4, 7] | IC50 (hERG)
1 | CNC[C@H](c1ccc(Br)c(Cl)c1)[C@@H](O)c1ccccc1 [Compound 21] | 470 nM | 2 nM | 66.4 nM | 20000 nM | 32.4 nM | 9.4 |  |  | 23000 nM
2 | CNC[C@H](c1ccc2ccccc2c1)[C@H](OCc1noc(C)n1)c1ccccc1 [Compound 22] | 180 nM | 2 nM | 2.1 nM | 15000 nM | 56.7 nM | 9.6 |  |  | 15000 nM
3 | CNC[C@H](c1ccc2ccccc2c1)[C@H](OCC(=O)N1CCOCC1)c1ccccc1 [Compound 23] | 4900 nM | 2 nM | 5.6 nM | 20000 nM | 65.6 nM | 9.6 |  |  | 21000 nM
4 | CNC[C@H](c1ccc2ccccc2c1)[C@H](O)c1ccc(Cl)nc1 [Compound 26] | 27 nM | 2.2 nM | 1.6 nM | 20000 nM | 53.5 nM | 9.6 |  |  | 7500 nM
5 | CNC[C@H](c1ccc2ccccc2c1)[C@H](O)c1ccccc1C [Compound 28] | 160 nM | 2.4 nM | 3.4 nM | 9600 nM | 43.8 nM | 9.7 |  |  | 15000 nM
6 | CNC[C@H](c1ccc2ccccc2c1)[C@H](OCC(=O)N1CC[C@@H](O)C1)c1ccccc1 [Compound 34] | 12000 nM | 2.7 nM | 7.5 nM | 20000 nM | 28.5 nM | 9.6 |  |  | 33000 nM
7 | CNCC(Cc1ccccc1C)c1ccc2ccccc2c1 (stereo not drawn) [Compound 39] | 170 nM | 3.1 nM | 12.6 nM | 8400 nM | 34.3 nM |  | 10.1 |  | 8200 nM
8 | C[C@](CN)(Cc1cccnc1)c1ccc2ccccc2c1 [Compound 42] | 1100 nM | 3.2 nM | 0.3 nM | 3400 nM | 89.5 nM | 9.2 |  | 5.2 | 27000 nM
9 | CNC[C@@H](Cc1ccc(C)s1)c1ccc2ccccc2c1 [Compound 44] | 1000 nM | 3.3 nM | 12.2 nM | 8000 nM | 74.1 nM | 10 |  |  | 3300 nM
10 | CNCC(Cc1cccnc1)c1ccc2ccccc2c1 (stereo not drawn) [Compound 48] | 580 nM | 3.8 nM | 2.3 nM | 15000 nM | 78 nM | 9.9 |  |  | 33000 nM
11 | CNC[C@@H](c1ccc2ccccc2c1)[C@@H](O)c1cccnc1 [Compound 49] | 1700 nM | 3.8 nM | 5.6 nM | 20000 nM | 213 nM | 9.6 |  | 5.1 | 25000 nM
12 | CNCC(Cc1ccccc1O)c1ccc2ccccc2c1 (stereo not drawn) [Compound 52] | 900 nM | 4.1 nM | 20.4 nM | 20000 nM | 26.7 nM | 10 |  |  | 12000 nM
13 | CNCC(Cc1ccccc1OC)c1ccc2ccccc2c1 (stereo not drawn) [Compound 57] | 190 nM | 5 nM | 5.9 nM | 3300 nM | 20.2 nM | 10.1 |  |  | 4700 nM
14 | CNCC(Cc1ccccc1O)c1ccc2ccccc2c1 (stereo not drawn) [Compound 69] | 510 nM | 9 nM | 21.2 nM | 20000 nM | 21.9 nM |  | 10 |  | 9500 nM

Continued, in another order:

Row | IC50 (CYP2D6) | Ki [1] | Ki [2] | IC50 (CYP3A4) | Ki [3] | pKa [4, 5] | pKa (Base 1) [4, 6] | pKa [4, 7] | Compound | IC50 (hERG)
15 | 560 nM | 5.3 nM | 10.7 nM | 20000 nM | 83.2 nM | 9.7 |  |  | CNC[C@H](c1ccc2ccccc2c1)[C@@H](O)c1ccccc1F [Compound 60] | 28000 nM
16 | 300 nM | 5.8 nM | 0.9 nM | 20000 nM | 14.6 nM | 9.5 |  |  | CNC[C@H](c1ccc2ccccc2c1)[C@@H](Cl)c1ccccc1 [Compound 61] | 9800 nM
17 | 43 nM | 7.5 nM | 243 nM | 7800 nM | 18.1 nM | 9.3 |  |  | CNC[C@H](c1ccc(Cl)c(Cl)c1)[C@@H](O)c1ccccc1[N+](=O)[O-] [Compound 65] | 19000 nM
18 | 260 nM | 8.1 nM | 46.7 nM | 20000 nM | 28.9 nM | 10.1 |  |  | CNCC(CCc1ccccc1)[C@H](O)c1ccccc1 (stereo partly drawn) [Compound 66] | 15000 nM
19 | 330 nM | 8.2 nM | 0.7 nM | 20000 nM | 69.7 nM | 9.6 |  |  | CNC[C@H](c1ccc2ccccc2c1)[C@H](OCc1nc(C)no1)c1ccccc1 [Compound 67] | 15000 nM
20 | 220 nM | 9.5 nM | 142 nM | 20000 nM | 48.5 nM | 9.4 |  |  | CNC[C@H](c1ccc(Cl)c(Cl)c1)[C@@H](O)c1ccccc1 [Compound 70] | 31000 nM
21 | 790 nM | 10.3 nM | 13.6 nM | 8100 nM | 109 nM |  | 9.9 | 5.2 | CNCC(Cc1cccnc1)c1ccc2ccccc2c1 (stereo not drawn) [Compound 74] | 20000 nM
22 | 140 nM | 11.9 nM | 222 nM | 3600 nM | 21.2 nM | 9.4 |  |  | CNC[C@H](c1ccc(Cl)c(Cl)c1)[C@H](O)c1cccc(Br)c1 [Compound 76] | 3000 nM
23 | 1100 nM | 14.3 nM | 15.3 nM | 20000 nM | 26.1 nM | 9.7 |  |  | CNC[C@@H](c1ccc2ccccc2c1)[C@@H](O)c1ccccc1F [Compound 78] | 12000 nM
24 | 990 nM | 15.3 nM | 15.3 nM | 20000 nM | 9.8 nM | 9 |  | 8.3 | CN(C)C[C@H](c1ccc2ccccc2c1)[C@H](N)c1ccccc1 [Compound 82] | 19000 nM
25 | 1000 nM | 16.4 nM | 16.1 nM | 20000 nM | 247 nM | 10.1 |  |  | CNCC(C[C@H](O)c1ccccc1)c1ccc2ccccc2c1 (stereo partly drawn) [Compound 85] | 21000 nM
26 | 290 nM | 16.7 nM | 2.7 nM | 20000 nM | 9.9 nM | 9.2 |  |  | CN(C)CC(C)(c1ccc2ccccc2c1)C(O)c1ccccc1 (stereo not drawn) [Compound 86] | 850 nM
27 | 66 nM | 18.1 nM | 6.1 nM | 940 nM | 114 nM | 9.8 |  | 8.5 | CNC[C@H](c1ccc2ccccc2c1)[C@H](N)c1ccccc1 [Compound 87] | 17000 nM
28 | 1800 nM | 21.4 nM | 1.8 nM | 20000 nM | 25 nM | 8.9 |  |  | CN(C)C[C@H](c1ccc2ccccc2c1)[C@H](OCCO)c1ccccc1 [Compound 89] | 6600 nM
